Laboratory results published in patent US20170166598A1, “HETEROARYL COMPOUNDS FOR KINASE INHIBITION” (ARIAD PHARMACEUTICALS, INC., priority 2014, published 2017).

Key:
Format in all cases: cell-based
[1] = target: T1, human EGFR exon 20 insertion ASV (V769_D770insASV) (Homo sapiens, UniProt P00533, INS769ASV); experiment: Ba/F3-EGFR-Exon20-ASV cell anti-proliferative assay (CellTiter 96 MTS, 72 h); conditions: Ba/F3-EGFR-Exon20-ASV cells
T1 construct: expressed in transfected cells; host or cells: Ba/F3 (murine pro-B) cells transduced with lentivirus from pLVX-IRES puro
T1 sequence (P00533 with tags, fused parts or gaps INS769ASV): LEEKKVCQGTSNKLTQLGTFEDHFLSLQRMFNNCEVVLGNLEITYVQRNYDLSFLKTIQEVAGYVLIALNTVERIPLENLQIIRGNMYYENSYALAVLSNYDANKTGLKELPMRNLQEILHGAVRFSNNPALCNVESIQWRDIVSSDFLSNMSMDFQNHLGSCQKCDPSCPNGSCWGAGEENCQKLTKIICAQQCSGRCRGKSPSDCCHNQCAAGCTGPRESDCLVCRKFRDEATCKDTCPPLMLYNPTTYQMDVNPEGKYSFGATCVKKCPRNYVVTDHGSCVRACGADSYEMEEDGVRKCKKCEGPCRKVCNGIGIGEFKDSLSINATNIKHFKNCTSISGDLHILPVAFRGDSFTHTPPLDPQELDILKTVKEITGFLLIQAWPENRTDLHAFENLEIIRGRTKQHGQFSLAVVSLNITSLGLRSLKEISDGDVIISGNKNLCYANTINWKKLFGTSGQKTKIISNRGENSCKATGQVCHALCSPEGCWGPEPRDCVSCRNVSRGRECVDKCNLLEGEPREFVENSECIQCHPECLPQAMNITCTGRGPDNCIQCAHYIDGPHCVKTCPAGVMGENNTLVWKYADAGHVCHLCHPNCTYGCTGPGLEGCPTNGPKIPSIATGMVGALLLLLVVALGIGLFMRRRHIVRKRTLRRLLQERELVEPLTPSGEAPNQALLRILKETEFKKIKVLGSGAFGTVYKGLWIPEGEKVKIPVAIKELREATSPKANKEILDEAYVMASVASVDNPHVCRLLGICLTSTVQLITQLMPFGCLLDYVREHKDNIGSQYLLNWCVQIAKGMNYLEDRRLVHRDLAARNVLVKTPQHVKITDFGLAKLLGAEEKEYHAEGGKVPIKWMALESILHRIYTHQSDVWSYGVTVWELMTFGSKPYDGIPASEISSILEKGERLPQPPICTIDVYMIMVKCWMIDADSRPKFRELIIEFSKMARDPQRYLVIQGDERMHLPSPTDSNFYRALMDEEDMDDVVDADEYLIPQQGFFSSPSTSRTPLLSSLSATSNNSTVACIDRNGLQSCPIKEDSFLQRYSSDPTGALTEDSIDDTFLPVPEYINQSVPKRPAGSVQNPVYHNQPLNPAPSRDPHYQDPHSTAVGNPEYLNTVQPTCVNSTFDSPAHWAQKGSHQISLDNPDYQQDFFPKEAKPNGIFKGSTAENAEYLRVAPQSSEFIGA
Experimental: An expression vector, pLVX-IRES puro (Clontech) coding for human EGFR exon 20 insertions NPG (H773_V774insNPG) or ASV (V769_D770insASV), was transfected into HEK293 cells by the Trans-Lentiviral ORF Packaging System (Thermo Scientific), to produce virus encoding EGFR exon 20 insertions. Ba/F3 (DSMZ) cells maintained in RPMI 1640 medium supplemented with 10% fetal bovine serum, 200 μM L-glutamine/l 200 μg/mL penicillin/200 μg/mL streptomycin (Life Technology) and 10 ng/mL IL-3 (R&D system), were infected by EGFR Exon20 virus and subsequently selected by puromycin (Life Technology) selection and IL-3 depletion. […] The anti-proliferative activity of compounds were determined as follows: BaF3-EGFR-Exon20 cells (NPG or ASV) seeded in 96 well plates (2500 cells/well) were treated with test compound (dissolved in DMSO) at a series of concentrations (4-fold dilution, top concentration: 10,000 nM). The plates were incubated for 72 h in a 37° C. incubator with 5% CO2, and the number of viable cells in each well were measured indirectly by CellTiter 96® Aqueous One Solution Cell Proliferation Assay (Promega) This assay is a colorimetric method for determining the number of viable cells through measurement of their metabolic activity by detection of enzymatic conversion of tetrazolium salts into blue formazan derivatives. Reagent (20 μL) was added into each well, and the plates were returned to the incubator for 2 h. The absorbance in each well was then measured at 490 nm using an Envision plate reader (Perkin Elmer).

[2] = target: T2, human EGFR E746-A750 deletion and T790M Mutation (Homo sapiens, UniProt P00533, DEL746-750/T790M); experiment: Ba/F3-EGFR-Del/T790M cell anti-proliferative assay (CellTiter 96 MTS, 72 h); conditions: Ba/F3-EGFR-Del/T790M cells
T2 construct: expressed in transfected cells; host or cells: Ba/F3 (murine pro-B) cells transduced with lentivirus from pLVX-IRES puro
T2 sequence (P00533 with tags, fused parts or gaps DEL746-750/T790M): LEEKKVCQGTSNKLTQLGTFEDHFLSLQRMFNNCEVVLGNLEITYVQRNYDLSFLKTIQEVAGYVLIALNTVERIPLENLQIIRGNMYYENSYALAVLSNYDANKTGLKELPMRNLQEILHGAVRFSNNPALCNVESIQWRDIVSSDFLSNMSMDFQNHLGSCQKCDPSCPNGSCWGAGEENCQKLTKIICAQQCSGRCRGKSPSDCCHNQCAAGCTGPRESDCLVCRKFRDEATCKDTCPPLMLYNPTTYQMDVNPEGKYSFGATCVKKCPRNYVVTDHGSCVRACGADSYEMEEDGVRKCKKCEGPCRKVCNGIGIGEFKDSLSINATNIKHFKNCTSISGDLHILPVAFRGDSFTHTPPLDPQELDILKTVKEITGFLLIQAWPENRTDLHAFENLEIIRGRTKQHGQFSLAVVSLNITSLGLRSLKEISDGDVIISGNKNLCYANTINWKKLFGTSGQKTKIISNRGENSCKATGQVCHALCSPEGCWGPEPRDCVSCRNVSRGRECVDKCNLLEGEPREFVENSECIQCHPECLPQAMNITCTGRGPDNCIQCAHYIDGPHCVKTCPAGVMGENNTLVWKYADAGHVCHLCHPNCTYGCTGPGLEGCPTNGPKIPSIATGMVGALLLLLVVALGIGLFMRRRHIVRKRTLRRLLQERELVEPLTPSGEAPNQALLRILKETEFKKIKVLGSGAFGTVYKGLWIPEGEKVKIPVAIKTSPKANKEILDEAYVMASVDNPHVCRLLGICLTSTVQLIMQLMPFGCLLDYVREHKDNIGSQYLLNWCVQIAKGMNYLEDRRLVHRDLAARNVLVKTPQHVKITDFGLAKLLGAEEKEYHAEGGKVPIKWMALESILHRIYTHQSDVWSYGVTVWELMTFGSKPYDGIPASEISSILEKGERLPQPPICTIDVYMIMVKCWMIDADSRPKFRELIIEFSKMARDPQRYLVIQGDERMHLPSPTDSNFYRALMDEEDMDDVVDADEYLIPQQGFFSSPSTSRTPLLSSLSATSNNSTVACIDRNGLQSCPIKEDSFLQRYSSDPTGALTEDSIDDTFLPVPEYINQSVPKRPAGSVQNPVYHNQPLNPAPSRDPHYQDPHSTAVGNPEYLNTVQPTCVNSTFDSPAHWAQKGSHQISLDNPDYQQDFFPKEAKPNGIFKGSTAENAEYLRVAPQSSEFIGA
Outline: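 Ba/F3 cells made IL-3-independent by lentiviral human EGFR E746-A750 del/T790M, puromycin-selected. Cells treated 72 h at 37 °C with compound, 4-fold dilutions from 10,000 nM top concentration. Viability read by MTS tetrazolium-to-formazan conversion, absorbance at 490 nm after 2 h with reagent.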

[3] = target: T3, Her2 exon 20 YVMA insertion (A775_G776ins YVMA) (Homo sapiens, UniProt P04626, INS775YVMA); experiment: Ba/F3-Her2 Exon20 YVMA cell anti-proliferative assay (CellTiter 96 MTS, 72 h); conditions: Ba/F3-Her2 Exon20 YVMA cells
T3 construct: expressed in transfected cells; host or cells: Ba/F3 (murine pro-B) cells transduced with lentivirus from pLVX-IRES puro
T3 sequence (P04626 with tags, fused parts or gaps INS775YVMA): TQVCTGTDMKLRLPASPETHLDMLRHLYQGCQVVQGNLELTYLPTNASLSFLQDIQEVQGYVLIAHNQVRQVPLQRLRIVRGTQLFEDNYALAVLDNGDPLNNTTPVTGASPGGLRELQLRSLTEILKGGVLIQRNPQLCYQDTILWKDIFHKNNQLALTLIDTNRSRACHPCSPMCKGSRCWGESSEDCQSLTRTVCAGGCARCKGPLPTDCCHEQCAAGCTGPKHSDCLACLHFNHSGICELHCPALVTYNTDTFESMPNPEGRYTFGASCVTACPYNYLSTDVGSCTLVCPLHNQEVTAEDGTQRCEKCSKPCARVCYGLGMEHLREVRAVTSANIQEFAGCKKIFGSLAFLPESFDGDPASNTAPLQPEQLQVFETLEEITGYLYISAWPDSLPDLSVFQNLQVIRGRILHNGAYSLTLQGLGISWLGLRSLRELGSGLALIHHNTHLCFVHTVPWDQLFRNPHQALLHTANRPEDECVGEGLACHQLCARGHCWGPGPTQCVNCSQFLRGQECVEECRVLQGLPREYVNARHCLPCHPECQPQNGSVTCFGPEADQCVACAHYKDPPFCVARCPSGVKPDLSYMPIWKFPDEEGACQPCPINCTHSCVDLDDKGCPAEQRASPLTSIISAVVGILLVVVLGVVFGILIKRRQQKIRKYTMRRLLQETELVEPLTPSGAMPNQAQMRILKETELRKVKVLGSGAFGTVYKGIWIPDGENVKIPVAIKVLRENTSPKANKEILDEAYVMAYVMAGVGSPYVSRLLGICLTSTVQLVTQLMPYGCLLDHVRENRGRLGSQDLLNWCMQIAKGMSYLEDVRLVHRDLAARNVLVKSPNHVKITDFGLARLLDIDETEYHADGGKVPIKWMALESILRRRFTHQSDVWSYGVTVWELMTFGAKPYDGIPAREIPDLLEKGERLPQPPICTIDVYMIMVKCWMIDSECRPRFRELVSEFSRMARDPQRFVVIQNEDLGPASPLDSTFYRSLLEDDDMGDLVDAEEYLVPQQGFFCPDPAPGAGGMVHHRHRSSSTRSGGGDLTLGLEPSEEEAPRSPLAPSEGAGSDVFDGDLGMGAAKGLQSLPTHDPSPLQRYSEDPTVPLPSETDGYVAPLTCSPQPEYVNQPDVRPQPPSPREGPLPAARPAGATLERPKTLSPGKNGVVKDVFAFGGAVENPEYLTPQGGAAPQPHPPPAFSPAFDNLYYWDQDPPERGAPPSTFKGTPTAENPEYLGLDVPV
Outline: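 IL-3-independent Ba/F3 cells transduced with the YVMA insertion were treated with compound in 4-fold dilutions from 10,000 nM top. After 72 h at 37° C, viable cells were quantified by MTS tetrazolium conversion, with absorbance read at 490 nm after 2 h.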

[4] = target: T4, human EGFR exon 20 insertion NPG (H773_V774insNPG) (Homo sapiens, UniProt P00533, INS772GNP); experiment: Ba/F3-EGFR-Exon20-NPG cell anti-proliferative assay (CellTiter 96 MTS, 72 h); conditions: Ba/F3-EGFR-Exon20-NPG cells
T4 construct: expressed in transfected cells; host or cells: Ba/F3 (murine pro-B) cells transduced with lentivirus from pLVX-IRES puro
T4 sequence (P00533 with tags, fused parts or gaps INS772GNP): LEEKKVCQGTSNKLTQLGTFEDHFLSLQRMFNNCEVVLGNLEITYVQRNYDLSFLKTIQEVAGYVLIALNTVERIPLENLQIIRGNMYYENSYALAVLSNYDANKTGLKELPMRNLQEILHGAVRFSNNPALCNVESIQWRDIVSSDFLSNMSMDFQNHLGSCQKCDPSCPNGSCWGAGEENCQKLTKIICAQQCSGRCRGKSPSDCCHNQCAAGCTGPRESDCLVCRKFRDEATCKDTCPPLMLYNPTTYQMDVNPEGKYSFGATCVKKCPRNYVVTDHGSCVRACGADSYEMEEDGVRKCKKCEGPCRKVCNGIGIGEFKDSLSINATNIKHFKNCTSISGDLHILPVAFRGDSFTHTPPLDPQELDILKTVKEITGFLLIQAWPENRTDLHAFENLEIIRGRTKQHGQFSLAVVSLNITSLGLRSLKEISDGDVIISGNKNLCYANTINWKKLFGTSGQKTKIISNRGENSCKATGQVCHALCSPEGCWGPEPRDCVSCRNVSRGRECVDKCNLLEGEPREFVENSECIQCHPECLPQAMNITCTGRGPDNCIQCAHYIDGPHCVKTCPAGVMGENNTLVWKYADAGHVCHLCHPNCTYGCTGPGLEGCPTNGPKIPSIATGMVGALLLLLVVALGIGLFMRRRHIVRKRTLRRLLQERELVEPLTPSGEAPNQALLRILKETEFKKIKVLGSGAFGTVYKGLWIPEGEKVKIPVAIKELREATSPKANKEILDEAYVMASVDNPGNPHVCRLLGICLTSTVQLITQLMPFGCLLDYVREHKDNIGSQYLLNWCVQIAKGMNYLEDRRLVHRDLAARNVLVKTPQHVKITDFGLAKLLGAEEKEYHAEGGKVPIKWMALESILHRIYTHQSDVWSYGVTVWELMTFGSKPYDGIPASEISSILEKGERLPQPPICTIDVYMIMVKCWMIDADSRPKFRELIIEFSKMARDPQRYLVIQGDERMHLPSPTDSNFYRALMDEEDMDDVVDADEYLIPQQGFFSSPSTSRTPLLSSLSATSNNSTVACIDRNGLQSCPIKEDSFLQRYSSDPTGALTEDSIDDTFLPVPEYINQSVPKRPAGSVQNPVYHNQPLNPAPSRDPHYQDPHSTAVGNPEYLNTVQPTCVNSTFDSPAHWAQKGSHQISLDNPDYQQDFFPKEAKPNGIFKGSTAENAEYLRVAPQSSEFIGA
Outline: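 Ba/F3 cells made IL-3-independent by lentiviral EGFR exon 20 NPG or ASV insertion were exposed 72 h at 37 °C to 4-fold dilutions of compound (top 10,000 nM). Viability read by MTS tetrazolium conversion, absorbance 490 nm after 2 h.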

Row | Structure (SMILES) | IC50 [1] [nM] | EGFR exon 19 deletion and exon 20 T790M mutation IC50 [2] | IC50 [3] [nM] | IC50 [4] [nM]
1 | C=CC(=O)Nc1cc(Nc2ncc(-c3cn[nH]c3)c(-c3cn4c5c(cccc35)CCC4)n2)c(OC)cc1N(C)CCN(C)C [Example 85, N-(5-((4-(5,6-dihydro-4H-pyrrolo[3,2,1-ij]quinolin-1-yl)-5-(1H-pyrazol-4-yl)pyrimidin-2-yl)amino)-2-((2-(dimethylamino)ethyl)(methyl)amino)-4-methoxyphenyl)acrylamide] | < 100 | A (IC50 value for the indicated mutant below about 100 nM) | < 100 | < 100
2 | C=CC(=O)Nc1cc(Nc2ncc(-c3cnn(CC)c3)c(-c3cn4c5c(cccc35)CCC4)n2)c(OC)cc1N(C)CCN(C)C [Example 99] | < 100 | A (IC50 value for the indicated mutant below about 100 nM) | < 100 | < 100
3 | C=CC(=O)Nc1cc(Nc2ncc(-c3ncnn3C)c(-c3cn4c5c(cccc35)CCC4)n2)c(OC)cc1N(C)CCN(C)C [Example 111] | < 100 | A (IC50 value for the indicated mutant below about 100 nM) | 100 to 500 | < 100
4 | C=CC(=O)Nc1cc(Nc2nccc(-c3c(N4CCC(F)C4)n4c5c(cccc35)CCC4)n2)c(OC)cc1N(C)CCN(C)C (centres unmarked) [Example 92] | < 100 | A (IC50 value for the indicated mutant below about 100 nM) | 100 to 500 | < 100
5 | C=CC(=O)Nc1cc(Nc2ncc(C(=O)CC)c(-c3cn4c5c(cccc35)CCC4)n2)c(OC)cc1N(C)CCN(C)C [Example 88] | < 100 | A (IC50 value for the indicated mutant below about 100 nM) | < 100 | < 100
6 | C=CC(=O)Nc1cc(Nc2ncc(C(=O)NC)c(-c3cn4c5c(cccc35)CCC4)n2)c(OC)cc1N(C)CCN(C)C [Example 54, 2-((5-acrylamido-4-((2-(dimethylamino)ethyl)(methyl)amino)-2-methoxyphenyl)amino)-4-(5,6-dihydro-4H-pyrrolo[3,2,1-ij]quinolin-1-yl)-N-methylpyrimidine-5-carboxamide] | 100 to 500 | A (IC50 value for the indicated mutant below about 100 nM) | 100 to 500 | < 100
7 | C=CC(=O)Nc1cc(Nc2ncc(N3CCCC3)c(-c3cn4c5c(cccc35)CCC4)n2)c(OC)cc1N(C)CCN(C)C [Example 106] | 100 to 500 | A (IC50 value for the indicated mutant below about 100 nM) | 500 to 1000 | 100 to 500
8 | C=CC(=O)Nc1cc(Nc2ncc(C(=O)OC)c(-c3cn4c5c(cccc35)CCC4)n2)c(OC)cc1N(C)CC1CCCN1C (centres unmarked) [Example 89] | < 100 | A (IC50 value for the indicated mutant below about 100 nM) | < 100 | < 100
9 | [2H]C([2H])([2H])N(CCN(C)c1cc(OC)c(Nc2ncc(Cl)c(-c3cn4c5c(cccc35)OCC4)n2)cc1NC(=O)C=C)C([2H])([2H])[2H] [Example 7, N-(2-((2-(bis(methyl-d3)amino)ethyl)(methyl)amino)-5-((5-chloro-4-(2,3-dihydro-[1,4]oxazino[2,3,4-hi]indol-6-yl)pyrimidin-2-yl)amino)-4-methoxyphenyl)acrylamide] | < 100 | A (IC50 value for the indicated mutant below about 100 nM) | < 100 | < 100
10 | C=CC(=O)Nc1cc(Nc2nccc(-c3c(-c4ncco4)n4c5c(cccc35)CCC4)n2)c(OC)cc1N(C)CCN(C)C [Example 63, N-(2-((2-(dimethylamino)ethyl)(methyl)amino)-4-methoxy-5-((4-(2-(oxazol-2-yl)-5,6-dihydro-4H-pyrrolo[3,2,1-ij]quinolin-1-yl)pyrimidin-2-yl)amino)phenyl)acrylamide] | 100 to 500 | A (IC50 value for the indicated mutant below about 100 nM) | 500 to 1000 | < 100
11 | C=CC(=O)Nc1cc(Nc2ncc(C(O)CC)c(-c3cn4c5c(cccc35)CCC4)n2)c(OC)cc1N(C)CCN(C)C (centres unmarked) [Example 73, N-(5-((4-(5,6-dihydro-4H-pyrrolo[3,2,1-ij]quinolin-1-yl)-5-(1-hydroxypropyl)pyrimidin-2-yl)amino)-2-((2-(dimethylamino)ethyl)-(methyl)amino)-4-methoxyphenyl)acrylamide] | < 100 | A (IC50 value for the indicated mutant below about 100 nM) | 100 to 500 | < 100
12 | C=CC(=O)Nc1cc(Nc2ncc(OCC#N)c(-c3cn4c5c(cccc35)CCC4)n2)c(OC)cc1N(C)CCN(C)C [Example 50, N-(5-((5-(cyanomethoxy)-4-(5,6-dihydro-4H-pyrrolo[3,2,1-ij]quinolin-1-yl)pyrimidin-2-yl)amino)-2-((2-(dimethylamino)ethyl)(methyl)amino)-4-methoxyphenyl)acrylamide] | < 100 | A (IC50 value for the indicated mutant below about 100 nM) | < 100 | < 100
13 | C=CC(=O)Nc1cc(Nc2nccc(-c3c(-c4ncnn4C)n4c5c(cccc35)CCC4)n2)c(OC)cc1N(C)CCN(C)C [Example 110] | 100 to 500 | A (IC50 value for the indicated mutant below about 100 nM) | > 1000 | < 100
14 | C=CC(=O)Nc1cc(Nc2ncc(C#N)c(-c3cn4c5c(cccc35)OCC4)n2)c(OC)cc1N1CC(N(C)C)C1 [Example 6, N-(5-((5-cyano-4-(2,3-dihydro-[1,4]oxazino[2,3,4-hi]indol-6-yl)pyrimidin-2-yl)amino)-2-(3-(dimethylamino)azetidin-1-yl)-4-methoxyphenyl)acrylamide] | 100 to 500 | A (IC50 value for the indicated mutant below about 100 nM) | 100 to 500 | < 100
15 | C=CC(=O)Nc1cc(Nc2ncc(CCC(=O)OC)c(-c3cn4c5c(cccc35)CCC4)n2)c(OC)cc1N(C)CCN(C)C [Example 39, methyl 3-(2-((5-acrylamido-4-((2-(dimethylamino)ethyl)(methyl)amino)-2-methoxyphenyl)amino)-4-(5,6-dihydro-4H-pyrrolo[3,2,1-ij]quinolin-1-yl)pyrimidin-5-yl)propanoate] | 100 to 500 | A (IC50 value for the indicated mutant below about 100 nM) | 100 to 500 | < 100
16 | C=CC(=O)Nc1cc(Nc2ncc(/C=C\C#N)c(-c3cn4c5c(cccc35)CCC4)n2)c(OC)cc1N(C)CCN(C)C [Example 43, (Z)-N-(5-((5-(2-cyanovinyl)-4-(5,6-dihydro-4H-pyrrolo[3,2,1-ij]quinolin-1-yl)pyrimidin-2-yl)amino)-2-((2-(dimethylamino)ethyl)(methyl)amino)-4-methoxyphenyl)acrylamide] | < 100 | A (IC50 value for the indicated mutant below about 100 nM) | < 100 | < 100
17 | C=CC(=O)Nc1cc(Nc2nccc(-c3c(N4CCC(OC)C4)n4c5c(cccc35)CCC4)n2)c(OC)cc1N(C)CCN(C)C (centres unmarked) [Example 90] | 100 to 500 | A (IC50 value for the indicated mutant below about 100 nM) | 100 to 500 | < 100
